Source: patent US20260315464A1, “COMPOSITIONS, METHODS, AND SYSTEMS FOR MODULATING SPLICING OF MSH3” (REVIR THERAPEUTICS, INC., priority 2023, published 2026)

Tested on: MSH3
Assay: QPCR assay for levels of MSH3 upon compound treatment in HEK293T or AD293 cells (fold-change of MSH3 transcript, EC50 of MSH3 downregulation; total MSH3 exons 13/14, exons 20/21; Table 8)
Type: cell-based
Conditions: Homo sapiens, fold-change of the MSH3 transcript, normalized to GAPDH; for mrna remaining at 1 µM: 1 μM compound; for mrna remaining at 10 µM: 10 μM compound
In short: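 MSH3 mRNA was quantified by TaqMan qPCR covering exons 13/14, exons 20/21, exon 13/PE14A and exon 20/PE21A, with GAPDH as reference. Cells used were HEK293T or AD293, treated with compound at 1 μM and […].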

In the case of Cc1nn(C)nc1-c1cc(F)c2c(c1)C(=O)N(c1ccc(N3CCC4(CCNC4)C3)nn1)C2 (stereo not shown) [Compound 646, 2-(6-(2,7-diazaspiro[4.4]nonan-2-yl)pyridazin-3-yl)-6-(2,5-dimethyl-2H-1,2,3-triazol-4-yl)-4-fluoroisoindolin-1-one], the mrna remaining at 1 µM is reported as 115% and the mrna remaining at 10 µM is reported as 76%.
Compound CN(C)C1CN(c2ccc(N3Cc4c(F)cc(-c5nn(C)nc5Cl)cc4C3=O)nn2)C1 [Compound 647, 6-(5-chloro-2-methyl-2H-1,2,3-triazol-4-yl)-2-(6-(3-(dimethylamino)azetidin-1-yl)pyridazin-3-yl)-4-fluoroisoindolin-1-one] has a mrna remaining at 1 µM of 119% and a mrna remaining at 10 µM of 86%.
For Cc1nn(C)nc1-c1cc(F)c2c(c1)C(=O)N(c1ccc(N3CC[C@@H](NC(C)(C)C)C3)nn1)C2 [Compound 648, (R)-2-(6-(3-(tert-butylamino)pyrrolidin-1-yl)pyridazin-3-yl)-6-(2,5-dimethyl-2H-1,2,3-triazol-4-yl)-4-fluoroisoindolin-1-one], the mrna remaining at 1 µM was 113% and the mrna remaining at 10 µM was 87%.
In the case of CC(C)(O)Cn1cc(-c2cc(F)c3c(c2)C(=O)N(c2ccc(OC4CC(C)(C)NC(C)(C)C4)nn2)C3)c(Cl)n1 [Compound 649, 6-(3-chloro-1-(2-hydroxy-2-methylpropyl)-1H-pyrazol-4-yl)-4-fluoro-2-(6-((2,2,6,6-tetramethylpiperidin-4-yl)oxy)pyridazin-3-yl)isoindolin-1-one], the mrna remaining at 1 µM is reported as 106% and the mrna remaining at 10 µM is reported as 63%.
Cc1nn(C)nc1-c1cc(F)c2c(c1)C(=O)N(c1ccc(N3CCNC4(CC4)C3)nn1)C2 [Compound 650, 2-(6-(4,7-diazaspiro[2.5]octan-7-yl)pyridazin-3-yl)-6-(2,5-dimethyl-2H-1,2,3-triazol-4-yl)-4-fluoroisoindolin-1-one] showed a mrna remaining at 1 µM of 97% and a mrna remaining at 10 µM of 75%.
For Cc1nn(C)nc1-c1cc(F)c2c(c1)C(=O)N(c1ccc(N3CCC4CCC(C3)N4)nn1)C2 (stereo not shown) [Compound 651, 2-(6-(3,9-diazabicyclo[4.2.1]nonan-3-yl)pyridazin-3-yl)-6-(2,5-dimethyl-2H-1,2,3-triazol-4-yl)-4-fluoroisoindolin-1-one], the mrna remaining at 1 µM was 96% and the mrna remaining at 10 µM was 60%.
With Cn1nc(Cl)c(-c2cc(F)c3c(c2)C(=O)N(c2ccc(N4CCC(NC5CC5)C4)nn2)C3)n1 (stereo not shown) [Compound 652, 6-(5-chloro-2-methyl-2H-1,2,3-triazol-4-yl)-2-(6-(3-(cyclopropylamino)pyrrolidin-1-yl)pyridazin-3-yl)-4-fluoroisoindolin-1-one] the mrna remaining at 1 µM was 103% and the mrna remaining at 10 µM was 79%.
Compound Cn1nc(Cl)c(-c2cc(F)c3c(c2)C(=O)N(c2ccc(N4CC5CCC(C4)N5)nn2)C3)n1 [Compound 653, 2-(6-(3,8-diazabicyclo[3.2.1]octan-3-yl)pyridazin-3-yl)-6-(5-chloro-2-methyl-2H-1,2,3-triazol-4-yl)-4-fluoroisoindolin-1-one] has a mrna remaining at 1 µM of 93% and a mrna remaining at 10 µM of 27%.
With CCN1CC2CN(c3ccc(N4Cc5c(F)cc(-c6nn(C)nc6Cl)cc5C4=O)nn3)CC2C1 (stereo not shown) [Compound 654, 6-(5-chloro-2-methyl-2H-1,2,3-triazol-4-yl)-2-(6-(5-ethylhexahydropyrrolo[3,4-c]pyrrol-2(1H)-yl)pyridazin-3-yl)-4-fluoroisoindolin-1-one] the mrna remaining at 1 µM was 90% and the mrna remaining at 10 µM was 61%.
Cn1nc(Cl)c(-c2cc(F)c3c(c2)C(=O)N(c2ccc(N4CC5CC(C4)N5)nn2)C3)n1 [Compound 655, 2-(6-(3,6-diazabicyclo[3.1.1]heptan-3-yl)pyridazin-3-yl)-6-(5-chloro-2-methyl-2H-1,2,3-triazol-4-yl)-4-fluoroisoindolin-1-one] showed a mrna remaining at 1 µM of 115% and a mrna remaining at 10 µM of 48%.
In the case of Cn1nc(Cl)c(-c2cc(F)c3c(c2)C(=O)N(c2ccc(N4CC[C@@H](NC(C)(C)C)C4)nn2)C3)n1 [Compound 656, (R)-2-(6-(3-(tert-butylamino)pyrrolidin-1-yl)pyridazin-3-yl)-6-(5-chloro-2-methyl-2H-1,2,3-triazol-4-yl)-4-fluoroisoindolin-1-one], the mrna remaining at 1 µM is reported as 70% and the mrna remaining at 10 µM is reported as 43%.
In the case of Cc1nn(C)nc1-c1cc(F)c2c(c1)C(=O)N(c1ccc(N3CCC(C)(C)NC(C)(C)C3)nn1)C2 [Compound 657, 6-(2,5-dimethyl-2H-1,2,3-triazol-4-yl)-4-fluoro-2-(6-(3,3,5,5-tetramethyl-1,4-diazepan-1-yl)pyridazin-3-yl)isoindolin-1-one], the mrna remaining at 1 µM is reported as 75% and the mrna remaining at 10 µM is reported as 26%.
Cc1nn(C)nc1-c1cc(F)c2c(c1)C(=O)N(c1ccc(N3CC4CCC(C3)N4)nn1)C2 [Compound 658, 2-(6-(3,8-diazabicyclo[3.2.1]octan-3-yl)pyridazin-3-yl)-6-(2,5-dimethyl-2H-1,2,3-triazol-4-yl)-4-fluoroisoindolin-1-one] showed a mrna remaining at 1 µM of 132% and a mrna remaining at 10 µM of 51%.
In the case of Cn1nc(Cl)c(-c2cc(F)c3c(c2)C(=O)N(c2ccc(N4CCC5CCC(C4)N5)nn2)C3)n1 (stereo not shown) [Compound 659, 2-(6-(3,9-diazabicyclo[4.2.1]nonan-3-yl)pyridazin-3-yl)-6-(5-chloro-2-methyl-2H-1,2,3-triazol-4-yl)-4-fluoroisoindolin-1-one], the mrna remaining at 1 µM is reported as 142% and the mrna remaining at 10 µM is reported as 57%.
In the case of Cc1nn(C)nc1-c1cc(Cl)c2c(c1)C(=O)N(c1ccc(N(C)[C@H]3C[C@]4(C)CC[C@](C)(C3)N4)nn1)C2 [Compound 660, 4-chloro-6-(2,5-dimethyl-2H-1,2,3-triazol-4-yl)-2-(6-(((1R,3s,5S)-1,5-dimethyl-8-azabicyclo[3.2.1]octan-3-yl)(methyl)amino)pyridazin-3-yl)isoindolin-1-one], the mrna remaining at 1 µM is reported as 101% and the mrna remaining at 10 µM is reported as 50%.
For Cc1nn(C)nc1-c1cc(Cl)c2c(c1)C(=O)N(c1ccc(O[C@H]3C[C@]4(C)CC[C@](C)(C3)N4)nn1)C2 [Compound 661, 4-chloro-6-(2,5-dimethyl-2H-1,2,3-triazol-4-yl)-2-(6-(((1R,3s,5S)-1,5-dimethyl-8-azabicyclo[3.2.1]octan-3-yl)oxy)pyridazin-3-yl)isoindolin-1-one], the mrna remaining at 1 µM was 155% and the mrna remaining at 10 µM was 33%.
Work on Cc1nn(C)nc1-c1cc(F)c2c(c1)C(=O)N(c1ccc(N3CC4CC(C3)N4)nn1)C2 [Compound 662, 2-(6-(3,6-diazabicyclo[3.1.1]heptan-3-yl)pyridazin-3-yl)-6-(2,5-dimethyl-2H-1,2,3-triazol-4-yl)-4-fluoroisoindolin-1-one] yielded a mrna remaining at 1 µM of 191% and a mrna remaining at 10 µM of 87%.
CCN1CC2CN(c3ccc(N4Cc5c(F)cc(-c6nn(C)nc6C)cc5C4=O)nn3)CC2C1 (stereo not shown) [Compound 663, 6-(2,5-dimethyl-2H-1,2,3-triazol-4-yl)-2-(6-(5-ethylhexahydropyrrolo[3,4-c]pyrrol-2(1H)-yl)pyridazin-3-yl)-4-fluoroisoindolin-1-one] was tested, and the mrna remaining at 1 µM was 232% and the mrna remaining at 10 µM was 62%.
Cc1nn(C)nc1-c1cc(Cl)c2c(c1)C(=O)N(c1ccc(OC3CC(C)(C)NC(C)(C)C3)nn1)C2 [Compound 664, 4-chloro-6-(2,5-dimethyl-2H-1,2,3-triazol-4-yl)-2-(6-((2,2,6,6-tetramethylpiperidin-4-yl)oxy)pyridazin-3-yl)isoindolin-1-one] gave a mrna remaining at 1 µM of 94% and a mrna remaining at 10 µM of 20%.
Work on Cc1nn(C)nc1-c1cc(F)c2c(c1)C(=O)N(c1ccc(N3CCN4CCC[C@H]4C3)nn1)C2 [Compound 665, (S)-6-(2,5-dimethyl-2H-1,2,3-triazol-4-yl)-4-fluoro-2-(6-(hexahydropyrrolo[1,2-a]pyrazin-2(1H)-yl)pyridazin-3-yl)isoindolin-1-one] yielded a mrna remaining at 1 µM of 92% and a mrna remaining at 10 µM of 32%.
For Cc1nn(C)nc1-c1cc(F)c2c(c1)C(=O)N(c1ccc(N3CC4(CNC4)C3)nn1)C2 [Compound 666, 2-(6-(2,6-diazaspiro[3.3]heptan-2-yl)pyridazin-3-yl)-6-(2,5-dimethyl-2H-1,2,3-triazol-4-yl)-4-fluoroisoindolin-1-one], the mrna remaining at 1 µM was 97% and the mrna remaining at 10 µM was 59%.
CN(C)C1CCN(c2ccc(N3Cc4c(F)cc(-c5nn(C)nc5Cl)cc4C3=O)nn2)CC1 [Compound 667, 6-(5-chloro-2-methyl-2H-1,2,3-triazol-4-yl)-2-(6-(4-(dimethylamino)piperidin-1-yl)pyridazin-3-yl)-4-fluoroisoindolin-1-one] was tested, and the mrna remaining at 1 µM was 92% and the mrna remaining at 10 µM was 71%.
Compound CC1CCN(c2ccc(N3Cc4c(F)cc(-c5nn(C)nc5Cl)cc4C3=O)nn2)CCN1 (stereo not shown) [Compound 668, 6-(5-chloro-2-methyl-2H-1,2,3-triazol-4-yl)-4-fluoro-2-(6-(5-methyl-1,4-diazepan-1-yl)pyridazin-3-yl)isoindolin-1-one] has a mrna remaining at 1 µM of 103% and a mrna remaining at 10 µM of 13%.
Work on Cc1nn(C)nc1-c1cc(F)c2c(c1)C(=O)N(c1ccc(N3CCCNCC3)nn1)C2 [Compound 669, 2-(6-(1,4-diazepan-1-yl)pyridazin-3-yl)-6-(2,5-dimethyl-2H-1,2,3-triazol-4-yl)-4-fluoroisoindolin-1-one] yielded a mrna remaining at 1 µM of 97% and a mrna remaining at 10 µM of 42%.
For Cn1nc(Cl)c(-c2cc(F)c3c(c2)C(=O)N(c2ccc(N4CC5(CNC5)C4)nn2)C3)n1 [Compound 670, 2-(6-(2,6-diazaspiro[3.3]heptan-2-yl)pyridazin-3-yl)-6-(5-chloro-2-methyl-2H-1,2,3-triazol-4-yl)-4-fluoroisoindolin-1-one], the mrna remaining at 1 µM was 92% and the mrna remaining at 10 µM was 44%.
Work on Cn1nc(Cl)c(-c2cc(F)c3c(c2)C(=O)N(c2ccc(N4CCN5CCC[C@H]5C4)nn2)C3)n1 [Compound 671, (S)-6-(5-chloro-2-methyl-2H-1,2,3-triazol-4-yl)-4-fluoro-2-(6-(hexahydropyrrolo[1,2-a]pyrazin-2(1H)-yl)pyridazin-3-yl)isoindolin-1-one] yielded a mrna remaining at 1 µM of 94% and a mrna remaining at 10 µM of 47%.
